Experiment [1] concerns the target T1, DNA (cytosine-5)-methyltransferase 1 (Homo sapiens, UniProt P26358). Description: Inhibition of human recombinant full-length DNMT1 expressed in Sf9 cells assessed as inhibition of methylated dI-dC formation using poly dI-dC and [Me-3H]SAM as substrate incubated for 2 hrs by liquid scintillation counting analysis.
The target in experiment [2] is T1, DNA (cytosine-5)-methyltransferase 1. Nature of the experiment: Inhibition of human C-terminal domain DNMT1 catalytic domain (351 to 1600 residues) expressed in Escherichia coli BL21-CodonPlus (DE3)-RIL cells assessed as inhibition of methylated dI-dC formation using 1 ug/ml poly dI-dC and [Me-3H]SAM as substrate incubated for 2 hrs by liquid scintillation counting analysis.

Experiment [3] shares this target. Nature of the experiment: Inhibition of human C-terminal domain DNMT1 catalytic domain (351 to 1600 residues) expressed in Escherichia coli BL21-CodonPlus (DE3)-RIL cells assessed as inhibition of methylated dI-dC formation using 5 ug/ml poly dI-dC and [Me-3H]SAM as substrate incubated for 2 hrs by liquid scintillation counting analysis.
Experiment [4] has the same target. Description: Inhibition of human C-terminal domain DNMT1 catalytic domain (351 to 1600 residues) expressed in Escherichia coli BL21-CodonPlus (DE3)-RIL cells assessed as inhibition of methylated dI-dC formation using 25 ug/ml poly dI-dC and [Me-3H]SAM as substrate incubated for 2 hrs by liquid scintillation counting analysis.
For experiment [5] the target is unchanged. Description: Inhibition of human C-terminal domain DNMT1 catalytic domain (351 to 1600 residues) expressed in Escherichia coli BL21-CodonPlus (DE3)-RIL cells assessed as inhibition of methylated dI-dC formation using poly dI-dC and 1 uM [Me-3H]SAM as substrate incubated for 2 hrs by liquid scintillation counting analysis.
For experiment [6] the target is unchanged. Nature of the experiment: Inhibition of human C-terminal domain DNMT1 catalytic domain (351 to 1600 residues) expressed in Escherichia coli BL21-CodonPlus (DE3)-RIL cells assessed as inhibition of methylated dI-dC formation using poly dI-dC and 6 uM [Me-3H]SAM as substrate incubated for 2 hrs by liquid scintillation counting analysis.
Experiment [7] shares this target. Description: Inhibition of human C-terminal domain DNMT1 catalytic domain (351 to 1600 residues) expressed in Escherichia coli BL21-CodonPlus (DE3)-RIL cells assessed as inhibition of methylated dI-dC formation using poly dI-dC and 8 uM [Me-3H]SAM as substrate incubated for 2 hrs by liquid scintillation counting analysis.
The target is the same in experiment [8]. Description: Inhibition of human C-terminal domain DNMT1 catalytic domain (351 to 1600 residues) expressed in Escherichia coli BL21-CodonPlus (DE3)-RIL cells assessed as inhibition of methylated dI-dC formation using poly dI-dC and 12 uM [Me-3H]SAM as substrate incubated for 2 hrs by liquid scintillation counting analysis.
Experiment [9] shares this target. Nature of the experiment: Binding affinity to human C-terminal domain DNMT1 catalytic domain ([…] residues) expressed in Escherichia coli BL21-CodonPlus (DE3)-RIL cells by ultrafiltration binding assay.
Experiment [10] has the same target. Description: Inhibition of DNMT1 in human HT-29 cells assessed as reduction of 5-methylcytosine in cellular DNA at 100 uM incubated for 96 hrs by nLC-MS analysis. It counts as cell-based.

Among the data in ChEMBL document CHEMBL5137006, “Synthesis and Characterization of Transition-State Analogue Inhibitors against Human DNA Methyltransferase 1” (J Med Chem, 2022) are IC50, Kd and inhibition values, retold here.

Activity calls are given as the source filed them. The rule behind the calls is not given here.

T1 sequence (P26358 whole entry, the tested form may be a part): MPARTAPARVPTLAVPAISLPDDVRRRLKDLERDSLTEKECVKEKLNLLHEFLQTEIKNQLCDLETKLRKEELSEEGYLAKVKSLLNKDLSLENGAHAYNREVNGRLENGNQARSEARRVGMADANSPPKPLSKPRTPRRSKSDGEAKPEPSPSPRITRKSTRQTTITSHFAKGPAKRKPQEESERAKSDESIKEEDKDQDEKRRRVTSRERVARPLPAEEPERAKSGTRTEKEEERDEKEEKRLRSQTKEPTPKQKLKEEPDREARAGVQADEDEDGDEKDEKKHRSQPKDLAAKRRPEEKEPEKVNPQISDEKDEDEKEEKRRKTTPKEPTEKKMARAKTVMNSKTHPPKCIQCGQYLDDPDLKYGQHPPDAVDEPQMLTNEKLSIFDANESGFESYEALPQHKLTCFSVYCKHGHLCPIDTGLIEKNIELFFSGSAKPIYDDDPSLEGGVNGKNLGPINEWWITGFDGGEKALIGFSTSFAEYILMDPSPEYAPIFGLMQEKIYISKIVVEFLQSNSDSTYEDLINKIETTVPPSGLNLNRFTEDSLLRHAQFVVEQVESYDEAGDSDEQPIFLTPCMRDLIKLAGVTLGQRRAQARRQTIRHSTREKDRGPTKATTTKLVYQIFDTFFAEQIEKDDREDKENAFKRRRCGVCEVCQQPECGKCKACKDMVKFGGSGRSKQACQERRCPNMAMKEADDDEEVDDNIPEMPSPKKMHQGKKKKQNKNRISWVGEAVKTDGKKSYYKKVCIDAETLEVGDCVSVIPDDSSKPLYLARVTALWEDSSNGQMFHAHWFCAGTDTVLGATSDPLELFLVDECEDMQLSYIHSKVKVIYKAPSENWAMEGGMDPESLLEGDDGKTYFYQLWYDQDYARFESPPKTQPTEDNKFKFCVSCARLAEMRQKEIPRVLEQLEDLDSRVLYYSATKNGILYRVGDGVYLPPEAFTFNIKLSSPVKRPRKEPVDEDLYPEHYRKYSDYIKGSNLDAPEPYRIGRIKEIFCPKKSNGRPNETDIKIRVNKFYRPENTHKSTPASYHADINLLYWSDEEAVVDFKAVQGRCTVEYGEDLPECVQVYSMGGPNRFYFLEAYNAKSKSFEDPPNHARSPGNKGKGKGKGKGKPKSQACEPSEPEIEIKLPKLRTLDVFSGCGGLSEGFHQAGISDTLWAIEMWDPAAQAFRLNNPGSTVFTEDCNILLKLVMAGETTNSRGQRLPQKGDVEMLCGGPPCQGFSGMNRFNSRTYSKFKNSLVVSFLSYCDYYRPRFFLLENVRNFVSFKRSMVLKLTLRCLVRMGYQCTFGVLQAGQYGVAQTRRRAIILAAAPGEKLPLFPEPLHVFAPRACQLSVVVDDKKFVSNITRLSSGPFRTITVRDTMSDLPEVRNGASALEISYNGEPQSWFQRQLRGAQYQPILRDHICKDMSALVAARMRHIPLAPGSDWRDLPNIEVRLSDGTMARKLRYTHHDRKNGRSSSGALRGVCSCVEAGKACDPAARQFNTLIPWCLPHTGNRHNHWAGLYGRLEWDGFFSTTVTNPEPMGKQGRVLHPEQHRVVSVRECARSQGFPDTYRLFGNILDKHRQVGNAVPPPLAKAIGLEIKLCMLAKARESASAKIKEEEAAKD

Consider `Nc1nc(=O)n([C@H]2C[C@H](O)[C@@H](CO)O2)cc1CSCCC[C@H]1O[C@@H](n2cnc3c(N)ncnc32)[C@H](O)[C@@H]1O`, for which, in [1], the IC50 stood at 0.9 µM.
As to `Nc1nc(=O)n([C@H]2C[C@H](O)[C@@H](CO)O2)cc1CSC[C@H]1O[C@@H](n2cnc3c(N)ncnc32)[C@H](O)[C@@H]1O`, the half-inhibitory concentration (IC50) in experiment [1] was greater than 100 µM.
For `Nc1nc(=O)n([C@H]2C[C@H](O)[C@@H](CO)O2)cc1CNCC(CC[C@H](N)C(=O)O)C[C@H]1O[C@@H](n2cnc3c(N)ncnc32)[C@H](O)[C@@H]1O` (stereo not given in full), the IC50 in [1] was 1.2 µM; in experiment [2], 4 µM; in [3] it was 5.1 µM; in experiment [4] it was 5.4 µM; in experiment [5], 3.5 µM; in [6] it was 6.1 µM. Further, the IC50 amounted to 6.7 µM in experiment [7] and 8.7 µM in [8]. Further, the affinity in experiment [9], expressed as Kd, was 7.3 µM.
Take `Nc1ncn(C2C[C@H](O)[C@@H](CO)O2)c(=O)n1` (stereo not given in full): the inhibition result in experiment [10] is “Active”.
For the molecule `NC1=NC(=O)N([C@H]2C[C@H](O)[C@@H](CO)O2)CN1CCCCCN(CC[C@H](N)C(=O)O)C[C@H]1O[C@@H](n2cnc3c(N)ncnc32)[C@H](O)[C@@H]1O`, in [1], the IC50 was found to be 19.6 µM.
The same measure, in the same setting: next, `Nc1nc(=O)n([C@H]2C[C@H](O)[C@@H](CO)O2)cc1CCN(CC[C@H](N)C(=O)O)C[C@H]1O[C@@H](n2cnc3c(N)ncnc32)[C@H](O)[C@@H]1O`: 10.3 µM.
Regarding `Nc1nc(=O)n([C@H]2C[C@H](O)[C@@H](CO)O2)cc1CN(CC[C@H](N)C(=O)O)C[C@H]1O[C@@H](n2cnc3c(N)ncnc32)[C@H](O)[C@@H]1O`, the IC50 in [1] amounted to 8.5 µM.
For the molecule `Nc1nc(=O)n([C@H]2C[C@H](O)[C@@H](CO)O2)cc1CCCN(CC[C@H](N)C(=O)O)C[C@H]1O[C@@H](n2cnc3c(N)ncnc32)[C@H](O)[C@@H]1O`, the IC50 in experiment [1] amounted to 2.9 µM.
Regarding `Nc1nc(=O)n([C@H]2C[C@H](O)[C@@H](CO)O2)cc1CNC[C@H]1O[C@@H](n2cnc3c(N)ncnc32)[C@H](O)[C@@H]1O`, in experiment [1], the IC50 amounted to 0.4 µM.
Same read-out and setting: next, `Nc1nc(=O)n([C@H]2C[C@H](O)[C@@H](CO)O2)cc1CNCC[C@H](N)C(=O)O`: 17.2 µM.
As to `Nc1nc(=O)n([C@H]2C[C@H](O)[C@@H](CO)O2)cc1SCCN(CC[C@H](N)C(=O)O)C[C@H]1O[C@@H](n2cnc3c(N)ncnc32)[C@H](O)[C@@H]1O`, in experiment [1], the concentration for half-maximal inhibition (IC50) is 3.6 µM.
Take `Nc1nc(=O)n([C@H]2C[C@H](O)[C@@H](CO)O2)cc1CCCSC[C@H]1O[C@@H](n2cnc3c(N)ncnc32)[C@H](O)[C@@H]1O`: the 50% inhibitory concentration (IC50) in [1] was greater than 100 µM.
Consider `Nc1nc(=O)n([C@H]2C[C@H](O)[C@@H](CO)O2)cc1CCSC[C@H]1O[C@@H](n2cnc3c(N)ncnc32)[C@H](O)[C@@H]1O`, for which the IC50 in experiment [1] was greater than 100 µM.
As for `Nc1nc(=O)n([C@H]2C[C@H](O)[C@@H](CO)O2)cc1CCCNC[C@H]1O[C@@H](n2cnc3c(N)ncnc32)[C@H](O)[C@@H]1O`, in experiment [1], the IC50 is 10.3 µM.
On the same count and under the same terms, as for `Nc1nc(=O)n([C@H]2C[C@H](O)[C@@H](CO)O2)cc1CNCCCC[C@H](N)C(=O)O`, the figure is 2.7 µM; as for `Nc1nc(=O)n([C@H]2C[C@H](O)[C@@H](CO)O2)cc1CSCCCC[C@H](N)C(=O)O`, 1.1 µM; as for `Nc1nc(=O)n([C@H]2C[C@H](O)[C@@H](CO)O2)cc1CSCC[C@H](N)C(=O)O`, 7.2 µM.

One may read the IC50 as the concentration needed to halve the response being measured. For orientation: Kd means the free concentration of one partner at which half of the binding sites on the other are occupied at equilibrium, for simple one-to-one binding. A low value points to a tighter complex.
